From ChEMBL document CHEMBL4507273 (2021)

What was measured:
[1] = tested on: Proto-oncogene tyrosine-protein kinase receptor Ret (Homo sapiens), P07949 [M918T]; conditions: Compound concentration 1000.0 nM
[2] = molecular target: Serine/threonine-protein kinase Sgk2 (Homo sapiens) (UniProt Q9HBY8); conditions: Compound concentration 1000.0 nM
[3] = molecular target: Non-receptor tyrosine-protein kinase TYK2 (Homo sapiens) (UniProt P29597); conditions: Compound concentration 1000.0 nM
[4] = molecular target: T1, Muscarinic acetylcholine receptor M1 (Homo sapiens, UniProt P11229); assay: GPCRScan assay: inhibition of M1; parameters: radioligand conc. used [nm] 0.3 – 1.2, parental cells stable CHO
T1 sequence (P11229 whole entry): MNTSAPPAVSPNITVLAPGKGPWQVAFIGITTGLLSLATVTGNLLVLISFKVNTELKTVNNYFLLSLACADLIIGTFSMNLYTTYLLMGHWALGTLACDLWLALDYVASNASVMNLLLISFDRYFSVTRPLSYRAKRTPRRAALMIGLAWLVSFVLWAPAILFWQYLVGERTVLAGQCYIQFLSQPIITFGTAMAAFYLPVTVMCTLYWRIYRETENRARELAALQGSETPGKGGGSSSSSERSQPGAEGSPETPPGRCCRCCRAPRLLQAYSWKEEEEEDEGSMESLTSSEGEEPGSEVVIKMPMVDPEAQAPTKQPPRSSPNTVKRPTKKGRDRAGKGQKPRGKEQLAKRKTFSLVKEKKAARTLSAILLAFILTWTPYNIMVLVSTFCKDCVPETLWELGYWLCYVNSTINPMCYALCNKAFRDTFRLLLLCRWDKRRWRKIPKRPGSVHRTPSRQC

[5] = tested on: Mast/stem cell growth factor receptor Kit (Homo sapiens), P10721 [V559D,V654A]; conditions: Compound concentration 1000.0 nM
[6] = molecular target: Sodium-dependent dopamine transporter (Homo sapiens, UniProt Q01959); assay: GPCRScan assay: inhibition of DAT; parameters: radioligand conc. used [nm] 3.6 – 16.0, parental cells stable HEK
[7] = molecular target: T2, Alpha-1D adrenergic receptor (Homo sapiens, UniProt P25100); assay: GPCRScan assay: inhibition of Alpha1D; parameters: radioligand conc. used [nm] 0.3 – 1.0, parental cells stable
T2 sequence (P25100 whole entry): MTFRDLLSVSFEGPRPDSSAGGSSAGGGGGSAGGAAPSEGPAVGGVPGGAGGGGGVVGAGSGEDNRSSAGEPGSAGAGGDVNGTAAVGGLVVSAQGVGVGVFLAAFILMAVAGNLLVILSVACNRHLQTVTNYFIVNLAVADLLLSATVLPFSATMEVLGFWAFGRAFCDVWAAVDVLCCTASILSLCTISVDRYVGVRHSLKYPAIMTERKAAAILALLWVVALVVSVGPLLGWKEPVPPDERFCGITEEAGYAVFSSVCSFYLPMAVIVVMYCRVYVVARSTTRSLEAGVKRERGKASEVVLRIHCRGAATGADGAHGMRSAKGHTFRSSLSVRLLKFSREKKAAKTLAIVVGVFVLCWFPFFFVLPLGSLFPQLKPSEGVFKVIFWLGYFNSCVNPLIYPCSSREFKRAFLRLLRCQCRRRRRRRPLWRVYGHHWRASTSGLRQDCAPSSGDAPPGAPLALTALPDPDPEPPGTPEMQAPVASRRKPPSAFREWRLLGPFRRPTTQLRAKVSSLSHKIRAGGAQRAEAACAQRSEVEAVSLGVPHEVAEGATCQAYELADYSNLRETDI

[8] = molecular target: Ribosomal protein S6 kinase alpha-6 (Homo sapiens) (UniProt Q9UK32); conditions: Compound concentration 1000.0 nM
[9] = molecular target: BDNF/NT-3 growth factors receptor (Homo sapiens) (UniProt Q16620); conditions: Compound concentration 1000.0 nM
[10] = molecular target: Ephrin type-A receptor 3 (Homo sapiens) (UniProt P29320); conditions: Compound concentration 1000.0 nM
[11] = molecular target: Activin receptor type-1-like (Homo sapiens) (UniProt P37023); conditions: Compound concentration 1000.0 nM
[12] = molecular target: Casein kinase I isoform alpha-like (Homo sapiens) (UniProt Q8N752); conditions: Compound concentration 1000.0 nM
[13] = molecular target: Ephrin type-A receptor 4 (Homo sapiens) (UniProt P54764); conditions: Compound concentration 1000.0 nM
[14] = molecular target: Receptor-interacting serine/threonine-protein kinase 2 (Homo sapiens) (UniProt O43353); conditions: Compound concentration 1000.0 nM
[15] = molecular target: Phosphorylase b kinase gamma catalytic chain, skeletal muscle/heart isoform (Homo sapiens) (UniProt Q16816); conditions: Compound concentration 1000.0 nM
[16] = molecular target: MAP/microtubule affinity-regulating kinase 4 (Homo sapiens) (UniProt Q96L34); conditions: Compound concentration 1000.0 nM
[17] = molecular target: T3, Muscarinic acetylcholine receptor M5 (Homo sapiens, UniProt P08912); assay: GPCRScan assay: inhibition of M5; parameters: radioligand conc. used [nm] 0.2 – 1.0, parental cells stable CHO
T3 sequence (P08912 whole entry): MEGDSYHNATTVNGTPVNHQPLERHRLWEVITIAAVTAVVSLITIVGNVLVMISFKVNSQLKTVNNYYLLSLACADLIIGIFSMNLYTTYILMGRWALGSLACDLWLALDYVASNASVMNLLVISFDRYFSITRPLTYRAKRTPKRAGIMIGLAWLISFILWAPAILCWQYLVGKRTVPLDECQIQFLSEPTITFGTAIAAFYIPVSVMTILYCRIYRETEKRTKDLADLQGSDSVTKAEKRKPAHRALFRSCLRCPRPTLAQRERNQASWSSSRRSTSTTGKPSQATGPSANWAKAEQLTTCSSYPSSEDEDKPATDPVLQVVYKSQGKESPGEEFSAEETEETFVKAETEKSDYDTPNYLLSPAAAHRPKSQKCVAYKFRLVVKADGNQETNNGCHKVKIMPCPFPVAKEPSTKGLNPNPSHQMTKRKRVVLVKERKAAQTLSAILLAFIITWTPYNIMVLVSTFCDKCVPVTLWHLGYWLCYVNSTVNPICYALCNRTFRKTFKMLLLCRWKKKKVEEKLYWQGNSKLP

[18] = molecular target: Calcium/calmodulin-dependent protein kinase type II subunit beta (Homo sapiens) (UniProt Q13554); conditions: Compound concentration 1000.0 nM

Sequence of Sodium-dependent dopamine transporter (Q01959 whole entry): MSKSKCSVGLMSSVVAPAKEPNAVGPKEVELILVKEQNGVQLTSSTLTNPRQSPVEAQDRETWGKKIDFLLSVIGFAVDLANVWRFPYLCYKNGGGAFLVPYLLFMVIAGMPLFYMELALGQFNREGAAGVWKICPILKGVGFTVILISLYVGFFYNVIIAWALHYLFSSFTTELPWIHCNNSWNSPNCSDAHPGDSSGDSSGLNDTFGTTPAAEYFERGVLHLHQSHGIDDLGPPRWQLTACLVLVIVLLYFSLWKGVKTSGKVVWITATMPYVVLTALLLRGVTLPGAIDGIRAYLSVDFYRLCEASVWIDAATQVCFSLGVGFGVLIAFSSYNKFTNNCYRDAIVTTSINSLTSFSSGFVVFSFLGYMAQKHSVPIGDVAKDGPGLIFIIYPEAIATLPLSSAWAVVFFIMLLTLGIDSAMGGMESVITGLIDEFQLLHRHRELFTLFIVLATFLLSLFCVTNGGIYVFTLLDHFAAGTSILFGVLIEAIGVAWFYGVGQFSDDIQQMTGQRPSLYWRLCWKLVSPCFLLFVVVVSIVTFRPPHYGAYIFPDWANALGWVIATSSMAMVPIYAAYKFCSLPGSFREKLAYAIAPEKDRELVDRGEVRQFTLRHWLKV
Sequence of BDNF/NT-3 growth factors receptor (Homo sapiens) (Q16620 32-822 limits assumed): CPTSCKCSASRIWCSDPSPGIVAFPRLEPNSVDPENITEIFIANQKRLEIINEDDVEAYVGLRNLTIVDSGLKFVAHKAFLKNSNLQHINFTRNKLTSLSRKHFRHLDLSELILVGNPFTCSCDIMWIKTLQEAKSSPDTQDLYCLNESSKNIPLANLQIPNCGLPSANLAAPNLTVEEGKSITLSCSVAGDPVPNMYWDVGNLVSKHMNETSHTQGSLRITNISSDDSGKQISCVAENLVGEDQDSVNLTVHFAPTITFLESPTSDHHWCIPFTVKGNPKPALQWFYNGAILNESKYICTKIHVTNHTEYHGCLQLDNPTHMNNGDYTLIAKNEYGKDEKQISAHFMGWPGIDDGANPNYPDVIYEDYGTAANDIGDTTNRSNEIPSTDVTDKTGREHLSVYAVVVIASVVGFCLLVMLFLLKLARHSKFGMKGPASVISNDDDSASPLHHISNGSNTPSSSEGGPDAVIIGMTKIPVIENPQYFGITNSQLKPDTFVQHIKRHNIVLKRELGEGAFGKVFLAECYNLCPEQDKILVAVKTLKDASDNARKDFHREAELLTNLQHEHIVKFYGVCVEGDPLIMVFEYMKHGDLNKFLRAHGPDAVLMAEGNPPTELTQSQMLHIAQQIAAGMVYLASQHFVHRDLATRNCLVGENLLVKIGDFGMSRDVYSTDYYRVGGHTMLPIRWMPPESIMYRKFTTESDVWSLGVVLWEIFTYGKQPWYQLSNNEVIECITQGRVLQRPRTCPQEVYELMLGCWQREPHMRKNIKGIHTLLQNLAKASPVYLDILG
Sequence of Serine/threonine-protein kinase Sgk2 (Homo sapiens) (Q9HBY8 whole entry): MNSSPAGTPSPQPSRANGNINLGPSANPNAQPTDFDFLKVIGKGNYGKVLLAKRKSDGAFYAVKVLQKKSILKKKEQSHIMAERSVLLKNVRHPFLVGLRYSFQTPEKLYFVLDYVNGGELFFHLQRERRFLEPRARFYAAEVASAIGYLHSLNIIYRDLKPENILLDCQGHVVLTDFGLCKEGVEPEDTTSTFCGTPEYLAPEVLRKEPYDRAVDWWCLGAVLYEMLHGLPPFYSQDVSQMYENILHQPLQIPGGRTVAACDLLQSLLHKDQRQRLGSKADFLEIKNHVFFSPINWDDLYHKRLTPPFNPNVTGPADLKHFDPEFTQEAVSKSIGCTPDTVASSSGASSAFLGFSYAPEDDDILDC
Sequence of Casein kinase I isoform alpha-like (Homo sapiens) (Q8N752 whole entry, canonical isoform): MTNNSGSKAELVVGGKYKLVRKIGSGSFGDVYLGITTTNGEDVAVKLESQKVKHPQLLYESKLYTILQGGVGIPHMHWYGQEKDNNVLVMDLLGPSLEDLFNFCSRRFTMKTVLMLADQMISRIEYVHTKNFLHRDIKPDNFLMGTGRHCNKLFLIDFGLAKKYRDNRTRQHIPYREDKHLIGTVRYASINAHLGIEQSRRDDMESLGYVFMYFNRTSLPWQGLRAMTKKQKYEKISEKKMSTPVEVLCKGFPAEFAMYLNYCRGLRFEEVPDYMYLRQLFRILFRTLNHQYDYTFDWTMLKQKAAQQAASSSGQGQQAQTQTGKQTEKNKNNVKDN
Sequence of Proto-oncogene tyrosine-protein kinase receptor Ret (Homo sapiens), P07949 [M918T] (P07949 whole entry M918T): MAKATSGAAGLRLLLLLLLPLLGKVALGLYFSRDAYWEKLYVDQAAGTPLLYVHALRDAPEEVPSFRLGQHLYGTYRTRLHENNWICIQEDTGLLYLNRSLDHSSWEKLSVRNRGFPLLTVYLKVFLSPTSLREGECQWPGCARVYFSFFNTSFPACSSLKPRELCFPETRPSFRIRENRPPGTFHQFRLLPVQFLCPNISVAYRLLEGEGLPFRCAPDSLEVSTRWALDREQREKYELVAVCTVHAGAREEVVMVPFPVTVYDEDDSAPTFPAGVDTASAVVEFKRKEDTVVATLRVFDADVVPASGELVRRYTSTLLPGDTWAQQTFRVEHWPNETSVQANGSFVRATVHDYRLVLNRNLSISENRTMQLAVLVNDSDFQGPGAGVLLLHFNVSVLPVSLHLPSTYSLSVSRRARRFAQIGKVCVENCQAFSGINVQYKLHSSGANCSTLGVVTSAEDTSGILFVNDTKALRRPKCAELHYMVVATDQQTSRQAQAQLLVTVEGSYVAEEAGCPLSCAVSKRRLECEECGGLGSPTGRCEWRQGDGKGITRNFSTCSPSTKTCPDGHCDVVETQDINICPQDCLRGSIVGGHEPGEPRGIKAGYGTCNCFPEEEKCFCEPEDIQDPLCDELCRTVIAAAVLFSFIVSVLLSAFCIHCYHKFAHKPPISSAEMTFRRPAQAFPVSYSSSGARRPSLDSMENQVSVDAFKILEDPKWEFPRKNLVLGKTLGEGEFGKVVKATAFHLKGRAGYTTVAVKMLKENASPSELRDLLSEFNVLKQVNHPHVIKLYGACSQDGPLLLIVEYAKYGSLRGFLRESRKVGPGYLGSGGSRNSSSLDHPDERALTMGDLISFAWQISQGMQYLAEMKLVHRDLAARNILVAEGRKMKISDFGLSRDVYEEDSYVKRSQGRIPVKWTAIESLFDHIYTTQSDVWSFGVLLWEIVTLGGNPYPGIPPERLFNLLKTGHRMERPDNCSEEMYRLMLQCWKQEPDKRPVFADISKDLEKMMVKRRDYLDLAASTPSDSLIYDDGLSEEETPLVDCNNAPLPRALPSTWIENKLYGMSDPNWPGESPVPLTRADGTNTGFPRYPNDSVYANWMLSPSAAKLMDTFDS
Sequence of Mast/stem cell growth factor receptor Kit (Homo sapiens), P10721 [V559D,V654A] (P10721 whole entry V559D/V654A): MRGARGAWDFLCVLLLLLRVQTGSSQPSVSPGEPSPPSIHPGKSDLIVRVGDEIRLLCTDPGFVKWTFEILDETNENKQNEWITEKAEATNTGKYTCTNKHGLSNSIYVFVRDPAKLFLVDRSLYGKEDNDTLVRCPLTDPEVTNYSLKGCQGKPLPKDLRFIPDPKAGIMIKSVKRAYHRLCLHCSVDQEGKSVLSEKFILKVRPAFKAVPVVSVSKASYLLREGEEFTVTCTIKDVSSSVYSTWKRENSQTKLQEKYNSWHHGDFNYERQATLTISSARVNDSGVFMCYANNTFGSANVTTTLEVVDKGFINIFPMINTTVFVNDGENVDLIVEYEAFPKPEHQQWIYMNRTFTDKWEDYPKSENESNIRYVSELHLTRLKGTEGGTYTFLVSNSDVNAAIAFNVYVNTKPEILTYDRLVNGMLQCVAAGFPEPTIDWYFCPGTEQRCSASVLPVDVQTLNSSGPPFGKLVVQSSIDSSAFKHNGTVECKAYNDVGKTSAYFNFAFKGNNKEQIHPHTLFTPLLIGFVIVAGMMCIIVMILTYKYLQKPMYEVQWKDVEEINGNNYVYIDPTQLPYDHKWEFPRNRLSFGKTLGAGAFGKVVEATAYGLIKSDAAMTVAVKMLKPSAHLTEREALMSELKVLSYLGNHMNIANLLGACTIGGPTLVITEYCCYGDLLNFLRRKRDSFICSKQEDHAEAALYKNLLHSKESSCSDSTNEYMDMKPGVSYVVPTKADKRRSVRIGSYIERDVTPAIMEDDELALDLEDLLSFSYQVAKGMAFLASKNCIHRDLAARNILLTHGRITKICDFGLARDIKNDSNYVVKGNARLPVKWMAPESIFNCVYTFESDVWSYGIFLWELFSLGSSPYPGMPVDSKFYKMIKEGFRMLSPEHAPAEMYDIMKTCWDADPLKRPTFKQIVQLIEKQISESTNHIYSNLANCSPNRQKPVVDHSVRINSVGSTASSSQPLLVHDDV
Sequence of Activin receptor type-1-like (Homo sapiens) (P37023 whole entry, canonical isoform): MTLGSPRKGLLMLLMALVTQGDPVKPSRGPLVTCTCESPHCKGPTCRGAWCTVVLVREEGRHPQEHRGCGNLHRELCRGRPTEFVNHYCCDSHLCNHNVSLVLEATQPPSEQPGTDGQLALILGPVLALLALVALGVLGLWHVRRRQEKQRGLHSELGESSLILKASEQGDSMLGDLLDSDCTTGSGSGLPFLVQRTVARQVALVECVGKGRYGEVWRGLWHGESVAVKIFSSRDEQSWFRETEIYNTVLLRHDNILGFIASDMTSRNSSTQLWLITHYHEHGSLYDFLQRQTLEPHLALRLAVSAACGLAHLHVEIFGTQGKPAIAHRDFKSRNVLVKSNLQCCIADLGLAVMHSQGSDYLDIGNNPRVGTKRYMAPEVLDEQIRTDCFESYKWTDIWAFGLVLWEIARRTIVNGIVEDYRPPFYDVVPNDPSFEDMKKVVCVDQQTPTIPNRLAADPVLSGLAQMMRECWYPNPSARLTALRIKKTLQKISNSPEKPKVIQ

Row | SMILES | residual activity [1] | residual activity [2] | residual activity [3] | Ki ([4]; read-out: Ki) | Ki ([4]; read-out: pKi (converted)) | residual activity [5] | Ki ([6]; read-out: Ki) | Ki ([6]; read-out: pKi (converted)) | Ki ([7]; read-out: Ki) | residual activity [8] | residual activity [9] | residual activity [10] | residual activity [11] | residual activity [12] | residual activity [13] | residual activity [14] | residual activity [15] | residual activity [16] | Ki ([17]; read-out: Ki) | residual activity [18] | also measured
1 | CNCc1ccccc1-c1csc([C@@H](C)Nc2nc(C)nc3cc(OC)c(OC)cc23)c1 [BAY-293] | 70% | 95% | 99% | 238 nM | 209 nM | 89% | 522 nM | 479 nM | 338 nM | 100% | 88% | 87% | 87% | 100% | 79% | 100% | 83% | 100% | 956 nM | 92% | Ki ([17]; read-out: pKi (converted)): 944 nM
2 | CNCc1ccccc1-c1csc([C@H](C)Nc2nc(C)nc3cc(OC)c(OC)cc23)c1 [BAY-294] | 99% | 100% | 100% | 314 nM | 224 nM | 100% | 1670 nM | 1410 nM | 397 nM | 100% | 98% | 100% | 100% | 100% | 100% | 100% | 87% | 100% | 524 nM | 100% | Ki ([7]; read-out: pKi (converted)): 389 nM
